Results from ChEMBL document CHEMBL1156052, “Discovery of 1-[4-(3-chlorophenylamino)-1-methyl-1H-pyrrolo[3,2-c]pyridin-7-yl]-1-morpholin-4-ylmethanone (GSK554418A), a brain penetrant 5-azaindole CB2 agonist for the treatment of chronic pain” (J Med Chem, 2009).
≈ marks a conversion by molar mass, not a printed value. Calls of active or inactive are those of the source. The rule behind the calls is not given here.

Key:
[1] = target: D(1A) dopamine receptor (Homo sapiens) (UniProt P21728); experiment: Binding affinity to human dopamine D1 receptor at 1 uM
[2] = target: Substance-K receptor (Homo sapiens) (UniProt P21452); experiment: Binding affinity to human NK2 receptor at 1 uM
[3] = tested on: Rattus norvegicus; experiment: Analgesic activity in po dosed rat joint model of chronic pain assessed as minimum effective dose administered BID for 5 days; format: functional; conditions: 120 h, read-out: MED
[4] = target: Cannabinoid receptor 2 (Homo sapiens, UniProt P34972); experiment: Agonist activity at human recombinant cannabinoid CB2 receptor expressed in MMY23 Saccharomyces cerevisiae assessed as degradation of FDGlu to fluorescein after 24 hrs by spectrofluorimetry; format: functional
[5] = target: 5-hydroxytryptamine receptor 5A (Homo sapiens) (UniProt P47898); experiment: Binding affinity to 5HT5A receptor at 1 uM
[6] = target: Muscarinic acetylcholine receptor M2 (Homo sapiens) (UniProt P08172); experiment: Binding affinity to human muscarinic M2 receptor at 1 uM
[7] = Intrinsic clearance in human liver microsomes; format: ADME, Microsome
[8] = Ratio of drug level in brain to blood in rat 130 mg/kg, po after 1 hr; format: ADME, organism-based; design: dose 130 mg/kg, route oral
[9] = tested on: Rattus norvegicus; experiment: Analgesic activity in rat joint model of chronic pain assessed as reversal of hypersensitivity at 10 mg/kg, po BID for 5 days; format: functional, organism-based; design: dose 10 mg/kg
[10] = target: Cholecystokinin receptor type A (Homo sapiens) (UniProt P32238); experiment: Binding affinity to human CCKA receptor at 1 uM
[11] = target: Type-1 angiotensin II receptor (Homo sapiens) (UniProt P30556); experiment: Binding affinity to human AT1 receptor at 1 uM
[12] = target: Cytochrome P450 3A4 (Homo sapiens, UniProt P08684); experiment: Inhibition of CYP3A4; format: ADME
[13] = target: Galanin receptor type 2 (Homo sapiens) (UniProt O43603); experiment: Binding affinity to human GAL2 receptor at 1 uM
[14] = Binding affinity to GABA receptor at 1 uM
[15] = target: Histamine H2 receptor (Homo sapiens) (UniProt P25021); experiment: Binding affinity to human histamine H2 receptor at 1 uM
[16] = Drug level in Sprague-Dawley rat blood at 2 mg/kg, po after 0.8 hrs; format: ADME, organism-based; design: dose 2 mg/kg, route oral; conditions: read-out: Drug uptake
[17] = Drug level in blood of rat joint model of chronic pain at 10 mg/kg, po BID for 5 days; format: ADME, organism-based; design: dose 10 mg/kg, route oral; conditions: read-out: Drug uptake
[18] = target: 5-hydroxytryptamine receptor 2A (Homo sapiens) (UniProt P28223); experiment: Binding affinity to 5HT2A receptor at 1 uM
[19] = Binding affinity to adrenergic alpha1 receptor at 1 uM
[20] = Ratio of drug level in brain to blood in rat 130 mg/kg, po after 5 hrs; format: ADME, organism-based; design: dose 130 mg/kg, route oral
[21] = target: Muscarinic acetylcholine receptor M4 (Homo sapiens) (UniProt P08173); experiment: Binding affinity to human muscarinic M4 receptor at 1 uM
[22] = Dissociation constant, pKa of the compound; format: physicochemical
[23] = target: D(2) dopamine receptor (Homo sapiens) (UniProt P14416); experiment: Binding affinity to human dopamine D2S receptor at 1 uM
[24] = target: T1, Cannabinoid receptor 1 (Homo sapiens, UniProt P21554); experiment: Agonist activity at human recombinant cannabinoid CB1 receptor expressed in MMY23 Saccharomyces cerevisiae assessed as degradation of FDGlu to fluorescein after 24 hrs by spectrofluorimetry relative to HU210; format: functional
[25] = Solubility in simulated intestinal fluid at pH 5; format: physicochemical
[26] = Ratio of drug level in brain to blood in Sprague-Dawley rat at 0.4 mg/kg/hr, iv up to 12 hrs; format: ADME, organism-based; design: route intravenous
[27] = target: Alpha-2A adrenergic receptor (Homo sapiens) (UniProt P08913); experiment: Binding affinity to adrenergic alpha2 receptor at 1 uM
[28] = Ratio of drug level in brain to blood in rat 130 mg/kg, po after 3 hrs; format: ADME, organism-based; design: dose 130 mg/kg, route oral
[29] = target: Cytochrome P450 2C9 (Homo sapiens, UniProt P11712); experiment: Inhibition of CYP2C9; format: ADME
[30] = Efflux ratio of apparent permeability […] side of MDR1-expressing MDCK2 cells after 60 mins by liquid scintillation counting; format: ADME, cell-based, Canis lupus familiaris; conditions: dog, mdck-ii, 1 h
[31] = target: Melanocortin receptor 4 (Homo sapiens) (UniProt P32245); experiment: Binding affinity to human MC4 receptor at 1 uM
[32] = target: T1, Cannabinoid receptor 1; experiment: Agonist activity at human recombinant cannabinoid CB1 receptor expressed in MMY23 Saccharomyces cerevisiae assessed as degradation of FDGlu to fluorescein after 24 hrs by spectrofluorimetry; format: functional
[33] = Drug level in rat blood at 130 mg/kg, po after 5 hrs; format: ADME, organism-based; design: dose 130 mg/kg, route oral; conditions: read-out: Drug uptake
[34] = target: Melatonin receptor type 1A (Homo sapiens) (UniProt P48039); experiment: Binding affinity to human ML1 receptor at 1 uM
[35] = target: Cytochrome P450 2D6 (Homo sapiens, UniProt P10635); experiment: Inhibition of CYP2D6; format: ADME
[36] = tested on: Rattus norvegicus; experiment: Induction of hypothermia in rat at 130 mg/kg, po after 1 to 5 hrs; format: organism-based; design: dose 130 mg/kg, route oral; conditions: in vivo
[37] = target: Muscarinic acetylcholine receptor M1 (Homo sapiens) (UniProt P11229); experiment: Binding affinity to human muscarinic M1 receptor at 1 uM
[38] = Intrinsic clearance in rat liver microsomes; format: ADME, Microsome
[39] = target: Adenosine receptor A2a (Homo sapiens) (UniProt P29274); experiment: Binding affinity to human adenosine A2A receptor at 1 uM
[40] = Drug level in blood of complete Freund's adjuvant rat model of inflammatory pain at 0.1 mg/kg, po administered as single dose measured after 1 hr; format: ADME, organism-based; design: dose 0.1 mg/kg, route oral; conditions: read-out: Drug uptake
[41] = target: Endothelin-1 receptor (Homo sapiens) (UniProt P25101); experiment: Binding affinity to human ETA receptor at 1 uM
[42] = target: Adenosine receptor A3 (Homo sapiens) (UniProt P0DMS8); experiment: Binding affinity to human adenosine A3 receptor at 1 uM
[43] = target: C-X-C chemokine receptor type 2 (Homo sapiens) (UniProt P25025); experiment: Binding affinity to human CXCR2 receptor at 1 uM
[44] = target: B2 bradykinin receptor (Homo sapiens) (UniProt P30411); experiment: Binding affinity to human bradykinin B2 receptor at 1 uM
[45] = Drug level in rat blood at 130 mg/kg, po after 3 hrs; format: ADME, organism-based; design: dose 130 mg/kg, route oral; conditions: read-out: Drug uptake
[46] = target: Beta-1 adrenergic receptor (Homo sapiens) (UniProt P08588); experiment: Binding affinity to human beta-1 adrenergic receptor at 1 uM
[47] = tested on: Rattus norvegicus; experiment: Antihyperalgesic activity in po dosed complete Freund's adjuvant rat model of inflammatory pain assessed as reduction of hypersensitivity administered as single dose; format: functional
[48] = target: 5-hydroxytryptamine receptor 1A (Homo sapiens) (UniProt P08908); experiment: Binding affinity to 5HT1A receptor at 1 uM
[49] = species on record: Homo sapiens; experiment: Selectivity ratio of EC50 for human recombinant cannabinoid CB1 receptor to EC50 for human recombinant cannabinoid CB2 receptor

T1 sequence (P21554 whole entry): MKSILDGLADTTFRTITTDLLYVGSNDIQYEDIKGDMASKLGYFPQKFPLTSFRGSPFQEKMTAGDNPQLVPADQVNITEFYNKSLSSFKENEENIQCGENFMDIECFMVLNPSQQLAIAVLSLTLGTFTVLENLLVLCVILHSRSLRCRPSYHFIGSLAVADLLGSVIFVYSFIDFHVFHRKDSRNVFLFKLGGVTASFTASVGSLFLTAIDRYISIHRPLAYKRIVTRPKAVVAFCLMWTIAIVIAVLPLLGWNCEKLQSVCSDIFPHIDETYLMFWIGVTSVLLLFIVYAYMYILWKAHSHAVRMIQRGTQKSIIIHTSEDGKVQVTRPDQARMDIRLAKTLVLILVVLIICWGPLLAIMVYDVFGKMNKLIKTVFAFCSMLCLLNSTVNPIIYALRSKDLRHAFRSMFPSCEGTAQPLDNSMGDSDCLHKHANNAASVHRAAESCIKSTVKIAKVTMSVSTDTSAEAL
Chain of D(1A) dopamine receptor (Homo sapiens) (P21728 whole entry): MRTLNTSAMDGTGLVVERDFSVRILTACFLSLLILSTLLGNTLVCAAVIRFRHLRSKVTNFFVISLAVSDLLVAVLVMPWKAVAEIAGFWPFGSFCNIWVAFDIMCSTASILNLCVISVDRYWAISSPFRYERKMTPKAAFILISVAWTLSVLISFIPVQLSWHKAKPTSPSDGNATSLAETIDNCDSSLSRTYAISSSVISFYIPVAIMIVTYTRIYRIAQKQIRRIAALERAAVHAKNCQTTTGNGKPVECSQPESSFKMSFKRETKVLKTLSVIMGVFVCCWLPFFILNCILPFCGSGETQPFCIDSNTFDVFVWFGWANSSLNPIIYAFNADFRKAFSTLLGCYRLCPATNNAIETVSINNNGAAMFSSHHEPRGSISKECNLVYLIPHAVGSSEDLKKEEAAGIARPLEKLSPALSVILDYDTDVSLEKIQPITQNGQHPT
Chain of Endothelin-1 receptor (Homo sapiens) (P25101 whole entry): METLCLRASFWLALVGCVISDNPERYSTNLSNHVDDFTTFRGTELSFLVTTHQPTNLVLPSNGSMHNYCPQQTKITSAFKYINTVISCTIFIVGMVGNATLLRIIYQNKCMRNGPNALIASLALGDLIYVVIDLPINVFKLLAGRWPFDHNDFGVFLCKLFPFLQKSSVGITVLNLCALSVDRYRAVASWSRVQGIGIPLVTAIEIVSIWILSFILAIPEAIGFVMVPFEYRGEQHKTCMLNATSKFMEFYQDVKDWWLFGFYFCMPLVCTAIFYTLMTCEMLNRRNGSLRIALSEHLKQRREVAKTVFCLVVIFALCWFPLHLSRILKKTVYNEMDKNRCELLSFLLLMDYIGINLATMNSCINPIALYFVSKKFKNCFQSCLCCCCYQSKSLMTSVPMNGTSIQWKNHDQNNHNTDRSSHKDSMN
Chain of D(2) dopamine receptor (Homo sapiens) (P14416 whole entry): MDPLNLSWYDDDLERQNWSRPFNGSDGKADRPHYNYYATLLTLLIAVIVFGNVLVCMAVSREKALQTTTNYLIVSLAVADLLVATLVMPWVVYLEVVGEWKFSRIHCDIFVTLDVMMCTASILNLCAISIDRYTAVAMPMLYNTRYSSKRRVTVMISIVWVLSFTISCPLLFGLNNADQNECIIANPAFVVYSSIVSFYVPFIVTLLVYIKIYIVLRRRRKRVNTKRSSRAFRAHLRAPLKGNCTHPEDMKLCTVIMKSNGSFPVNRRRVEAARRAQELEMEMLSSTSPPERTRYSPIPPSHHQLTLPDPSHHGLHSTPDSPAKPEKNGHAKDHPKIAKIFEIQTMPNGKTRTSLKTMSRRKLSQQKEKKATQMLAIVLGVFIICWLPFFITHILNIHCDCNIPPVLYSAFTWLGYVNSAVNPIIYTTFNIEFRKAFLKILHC
Chain of Cholecystokinin receptor type A (Homo sapiens) (P32238 whole entry): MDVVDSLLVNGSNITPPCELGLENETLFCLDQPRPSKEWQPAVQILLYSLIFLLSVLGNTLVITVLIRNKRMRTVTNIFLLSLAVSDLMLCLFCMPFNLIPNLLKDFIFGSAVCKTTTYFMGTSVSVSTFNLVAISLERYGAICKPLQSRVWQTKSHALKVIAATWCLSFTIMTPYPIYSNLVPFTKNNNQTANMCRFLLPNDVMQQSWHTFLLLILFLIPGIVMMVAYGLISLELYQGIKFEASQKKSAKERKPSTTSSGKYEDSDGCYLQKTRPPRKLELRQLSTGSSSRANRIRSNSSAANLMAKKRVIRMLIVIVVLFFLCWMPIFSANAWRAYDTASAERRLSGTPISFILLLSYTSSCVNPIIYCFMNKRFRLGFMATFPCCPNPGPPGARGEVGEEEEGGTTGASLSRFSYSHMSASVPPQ
Chain of Cytochrome P450 2C9 (P11712 whole entry): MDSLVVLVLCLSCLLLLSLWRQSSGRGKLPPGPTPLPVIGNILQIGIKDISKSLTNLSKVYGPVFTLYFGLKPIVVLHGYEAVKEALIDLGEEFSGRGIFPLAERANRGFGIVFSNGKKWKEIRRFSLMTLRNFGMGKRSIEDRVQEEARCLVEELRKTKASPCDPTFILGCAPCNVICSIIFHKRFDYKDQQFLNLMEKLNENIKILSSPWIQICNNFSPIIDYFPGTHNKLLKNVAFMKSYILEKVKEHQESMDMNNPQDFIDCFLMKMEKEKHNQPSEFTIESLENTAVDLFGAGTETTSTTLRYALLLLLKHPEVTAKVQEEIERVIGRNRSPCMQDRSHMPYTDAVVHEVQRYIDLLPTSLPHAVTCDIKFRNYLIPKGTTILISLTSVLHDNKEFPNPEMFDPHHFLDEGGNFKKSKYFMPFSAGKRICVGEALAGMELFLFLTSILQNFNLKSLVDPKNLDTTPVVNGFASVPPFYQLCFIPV
Chain of B2 bradykinin receptor (Homo sapiens) (P30411 whole entry): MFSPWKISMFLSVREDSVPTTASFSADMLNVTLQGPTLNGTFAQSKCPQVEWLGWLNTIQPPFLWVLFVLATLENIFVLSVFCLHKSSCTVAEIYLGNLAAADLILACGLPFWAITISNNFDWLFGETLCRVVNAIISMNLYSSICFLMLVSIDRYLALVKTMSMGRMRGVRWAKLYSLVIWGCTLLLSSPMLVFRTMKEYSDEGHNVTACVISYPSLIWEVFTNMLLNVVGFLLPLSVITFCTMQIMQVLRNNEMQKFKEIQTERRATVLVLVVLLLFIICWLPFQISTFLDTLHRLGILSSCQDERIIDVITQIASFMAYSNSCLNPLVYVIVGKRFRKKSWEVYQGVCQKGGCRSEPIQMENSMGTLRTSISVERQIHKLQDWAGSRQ
Chain of Melatonin receptor type 1A (Homo sapiens) (P48039 whole entry): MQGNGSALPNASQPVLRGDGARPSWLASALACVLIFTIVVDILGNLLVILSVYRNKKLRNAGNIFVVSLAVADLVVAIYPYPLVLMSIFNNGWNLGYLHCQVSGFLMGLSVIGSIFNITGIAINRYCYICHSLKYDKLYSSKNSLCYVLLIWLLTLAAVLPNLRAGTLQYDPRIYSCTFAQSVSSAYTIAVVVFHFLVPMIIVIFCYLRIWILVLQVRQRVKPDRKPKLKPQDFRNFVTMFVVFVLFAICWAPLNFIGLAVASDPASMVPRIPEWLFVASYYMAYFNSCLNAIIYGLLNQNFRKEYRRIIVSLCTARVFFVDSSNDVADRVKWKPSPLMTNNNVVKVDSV
Chain of Melanocortin receptor 4 (Homo sapiens) (P32245 whole entry): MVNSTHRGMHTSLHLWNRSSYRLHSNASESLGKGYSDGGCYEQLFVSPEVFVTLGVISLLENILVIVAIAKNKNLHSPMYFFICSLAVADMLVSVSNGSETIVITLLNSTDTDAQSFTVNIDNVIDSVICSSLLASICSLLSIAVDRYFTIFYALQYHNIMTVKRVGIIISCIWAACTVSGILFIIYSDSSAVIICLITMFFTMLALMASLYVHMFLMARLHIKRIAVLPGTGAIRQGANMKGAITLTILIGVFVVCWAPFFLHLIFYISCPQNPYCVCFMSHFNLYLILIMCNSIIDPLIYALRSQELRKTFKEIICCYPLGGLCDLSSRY
Chain of 5-hydroxytryptamine receptor 1A (Homo sapiens) (P08908 whole entry): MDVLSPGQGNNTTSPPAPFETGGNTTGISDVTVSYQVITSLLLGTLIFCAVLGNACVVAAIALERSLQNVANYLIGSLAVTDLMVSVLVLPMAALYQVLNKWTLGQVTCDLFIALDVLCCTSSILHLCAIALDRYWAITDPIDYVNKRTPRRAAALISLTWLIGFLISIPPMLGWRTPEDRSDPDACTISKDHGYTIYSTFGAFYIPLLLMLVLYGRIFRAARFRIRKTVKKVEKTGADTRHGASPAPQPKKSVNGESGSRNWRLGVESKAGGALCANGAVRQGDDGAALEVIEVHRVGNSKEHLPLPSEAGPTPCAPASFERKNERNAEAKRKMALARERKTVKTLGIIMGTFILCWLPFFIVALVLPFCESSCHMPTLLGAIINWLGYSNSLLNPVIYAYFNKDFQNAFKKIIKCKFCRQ
Chain of C-X-C chemokine receptor type 2 (Homo sapiens) (P25025 whole entry): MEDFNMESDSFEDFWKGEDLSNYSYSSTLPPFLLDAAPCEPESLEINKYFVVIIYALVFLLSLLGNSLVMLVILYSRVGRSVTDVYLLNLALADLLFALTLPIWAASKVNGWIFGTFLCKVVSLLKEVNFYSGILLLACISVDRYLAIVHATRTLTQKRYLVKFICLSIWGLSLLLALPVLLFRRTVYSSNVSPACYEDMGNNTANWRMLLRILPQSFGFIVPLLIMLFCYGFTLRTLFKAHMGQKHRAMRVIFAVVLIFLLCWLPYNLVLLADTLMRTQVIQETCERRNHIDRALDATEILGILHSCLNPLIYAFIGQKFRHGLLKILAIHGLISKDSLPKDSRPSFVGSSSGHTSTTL
Chain of Cannabinoid receptor 2 (P34972 whole entry): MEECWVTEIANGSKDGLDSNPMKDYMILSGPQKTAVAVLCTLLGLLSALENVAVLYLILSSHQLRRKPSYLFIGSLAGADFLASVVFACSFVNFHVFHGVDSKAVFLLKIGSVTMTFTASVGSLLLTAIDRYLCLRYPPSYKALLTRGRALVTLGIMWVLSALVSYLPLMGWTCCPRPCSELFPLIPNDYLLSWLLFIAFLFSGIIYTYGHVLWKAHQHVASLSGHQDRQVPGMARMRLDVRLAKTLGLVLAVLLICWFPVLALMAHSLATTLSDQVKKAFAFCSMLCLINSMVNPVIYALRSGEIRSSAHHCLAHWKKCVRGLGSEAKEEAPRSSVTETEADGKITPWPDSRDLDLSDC

Compound: Cn1ccc2c(Nc3cccc(Cl)c3)ncc(C(=O)N3CCOCC3)c21
- Activity [1]: < 10%
- Activity [2]: < 10%
- minimal effective dose [3]: 3 mg/kg
- EC50 [4]: 0.005 µM
- Activity [5]: 15%
- Activity [6]: < 10%
- CLint scaled [7]: < 0.6 mL/min/kg
- Kp at 1 h [8]: 1
- Activity [9]: Active
- Activity [10]: < 10%
- Activity [11]: < 10%
- IC50 [12]: 24 µM
- Activity [13]: < 10%
- Activity [14]: < 10%
- Activity [15]: < 10%
- concentration at 0.8 h [16]: 1.1 µM
- concentration at 120 h [17]: 6.1 µM
- Activity [18]: 11%
- Activity [19]: < 10%
- Kp at 5 h [20]: 1
- Activity [21]: < 10%
- pKa [22]: 6.1
- Activity [23]: < 10%
- Efficacy [24]: 88%
- solubility [25]: 590 µg/mL (≈ 1590 µM)
- Kp at 12 h [26]: 1.04
- Activity [27]: 25%
- Kp at 3 h [28]: 1
- IC50 [29]: 42 µM
- Ratio [30]: 2.9
- Activity [31]: < 10%
- EC50 [32]: 6.3 µM
- concentration at 5 h [33]: 12.3 µM
- Activity [34]: < 10%
- IC50 [35]: 21 µM
- Activity [36]: Non-toxic
- Activity [37]: < 10%
- CLint scaled [38]: < 0.8 mL/min/kg
- Activity [39]: < 10%
- concentration at 1 h [40]: 0.097 µM
- Activity [41]: < 10%
- Activity [42]: < 10%
- Activity [43]: < 10%
- Activity [44]: < 10%
- concentration at 3 h [45]: 10 µM
- Activity [46]: < 10%
- ED50 [47]: 0.02 mg/kg
- Activity [48]: 24%
- Ratio EC50 [49]: 1200
